Test results as given in patent US9932320B2 (BRISTOL-MYERS SQUIBB COMPANY, priority 2014, dated 2018).
Where two headings read alike, the source gives them in different places.

Target: T1, AAK1 (GST-Xa-hAAK1) (Homo sapiens, UniProt Q2M2I8)
T1 construct: made in house
Assay: AAK1 Kinase Assay (Caliper LabChip, fluoresceinated peptide substrate)
Format: biochemical
Settings: AAK1 functional potency
Description: The assays were performed in U-bottom 384-well plates. The final assay volume was 30 μl prepared from 15 μl additions of enzyme and substrates (fluoresceinated peptide (5-FAM)-Aha-KEEQSQITSQVTGQIGWR-NH2 and ATP) and test compounds in assay buffer (10 mM Tris-HCL pH 7.4, 10 mM MgCl2, 0.01% Tween-20 and 1.0 mM DTT). The reactions were initiated by the combination of bacterially expressed, GST-Xa-hAAK1 with substrates and test compounds. The reactions were incubated at room temperature for 3 hours and terminated by adding 60 μl of 35 mM EDTA buffer to each sample. The reactions were analyzed on the Caliper LabChip 3000 (Caliper, Hopkinton, Mass.) by electrophoretic separation of the fluorescent substrate and phosphorylated product. Inhibition data were calculated by comparison to EDTA quenched control reactions for 100% inhibition and vehicle-only reactions for 0% inhibition. The final concentration of reagents in the assays are ATP, 22 μM; (5-FAM)-Aha-KEEQSQITSQVTGQIGWR-NH2, 1.5 μM; GST-Xa-hAAK1, 3.5 nM; and DMSO, 1.6%. Dose response curves were generated to determine the concentration required inhibiting 50% of kinase activity (IC50). Compounds were dissolved at 10 mM in dimethylsulfoxide (DMSO) and evaluated at eleven concentrations. IC50 values were derived by non-linear regression analysis.

[1] = class symbols, read-out: IC50 (nM), functional potency as IC50 ranges
[2] = numeric values, read-out: IC50 (nM), functional potency

T1 sequence (Q2M2I8 whole entry): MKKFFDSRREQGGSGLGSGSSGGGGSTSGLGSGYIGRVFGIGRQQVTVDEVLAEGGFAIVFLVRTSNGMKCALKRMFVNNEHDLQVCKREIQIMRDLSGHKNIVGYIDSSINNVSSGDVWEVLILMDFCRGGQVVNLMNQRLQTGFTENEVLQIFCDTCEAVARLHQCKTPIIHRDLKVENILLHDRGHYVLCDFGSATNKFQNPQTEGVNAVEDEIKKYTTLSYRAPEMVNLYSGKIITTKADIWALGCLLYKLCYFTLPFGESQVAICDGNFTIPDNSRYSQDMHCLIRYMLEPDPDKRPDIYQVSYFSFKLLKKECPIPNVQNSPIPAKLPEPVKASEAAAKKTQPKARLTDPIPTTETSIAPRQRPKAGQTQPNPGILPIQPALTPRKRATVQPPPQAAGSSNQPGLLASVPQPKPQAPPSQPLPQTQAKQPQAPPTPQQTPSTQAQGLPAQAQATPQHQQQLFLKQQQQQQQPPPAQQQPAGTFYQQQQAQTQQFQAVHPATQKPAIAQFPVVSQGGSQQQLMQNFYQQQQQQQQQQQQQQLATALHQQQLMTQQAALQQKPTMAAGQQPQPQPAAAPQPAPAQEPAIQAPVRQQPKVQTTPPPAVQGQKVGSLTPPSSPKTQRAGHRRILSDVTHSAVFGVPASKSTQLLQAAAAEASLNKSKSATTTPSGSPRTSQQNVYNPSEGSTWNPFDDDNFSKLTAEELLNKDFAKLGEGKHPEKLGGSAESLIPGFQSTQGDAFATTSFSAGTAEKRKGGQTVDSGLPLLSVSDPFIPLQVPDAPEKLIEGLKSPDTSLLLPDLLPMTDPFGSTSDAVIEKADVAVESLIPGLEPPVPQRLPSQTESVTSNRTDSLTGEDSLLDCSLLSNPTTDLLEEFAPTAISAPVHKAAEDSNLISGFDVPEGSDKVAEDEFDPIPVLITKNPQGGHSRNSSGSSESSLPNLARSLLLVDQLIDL

Row | IC50 [1] [nM] | IC50 [2] [nM] | Structure (SMILES)
1 | 11 to 100 |  | CCc1cc(C(N)CC(C)C)nc2ccc(-c3ccncc3)cc12 (racemic) [Example 43, 1-(4-ethyl-6-(pyridin-4-yl)quinolin-2-yl)-3-methylbutan-1-amine]
2 |  | 12 | CC(C)C[C@@H](N)c1cc(C#N)c2cc(-c3ccncc3)ccc2n1 (single isomer, unassigned) [Example 7]
3 | 1 to 10 |  | CC(C)C[C@H](N)c1cc(C#N)c2cc(-c3ccncc3)ccc2n1 (single isomer, unassigned) [Example 8]
4 | 1 to 10 |  | CC(=O)Nc1cc(-c2ccc3nc(C(N)CC(C)C)ccc3c2)ccn1 (single isomer, unassigned) [Example 33, N-(4-(2-(1-amino-3-methylbutyl)quinolin-6-yl)pyridin-2-yl)acetamide]
5 | 1 to 10 |  | CC(=O)Nc1cc(-c2ccc3nc(C(N)CC(C)C)ccc3c2)ccn1 (single isomer, unassigned) [Example 34, N-(4-(2-(1-amino-3-methylbutyl)quinolin-6-yl)pyridin-2-yl)acetamide]
6 |  | 54 | NC(=O)c1cc(C(N)C2CCCCC2)nc2ccc(-c3ccncc3)cc12 (single isomer, unassigned) [Example 39, 2-(amino(cyclohexyl)methyl)-6-(pyridin-4-yl)quinoline-4-carboxamide]
7 | 101 to 2500 |  | NC(=O)c1cc(C(N)C2CCCCC2)nc2ccc(-c3ccncc3)cc12 (single isomer, unassigned) [Example 40, 2-(amino(cyclohexyl)methyl)-6-(pyridin-4-yl)quinoline-4-carboxamide]
8 | 101 to 2500 |  | CC(=O)Nc1cc(-c2ccc3nc(C(N)CC(C)C)ccc3c2)c2ccccc2n1 (single isomer, unassigned) [Example 46, N-(2′-(1-amino-3-methylbutyl)-4,6′-biquinolin-2-yl)acetamide]
9 |  | 1200 | CC(=O)Nc1cc(-c2ccc3nc(C(N)CC(C)C)ccc3c2)c2ccccc2n1 (single isomer, unassigned) [Example 47, N-(2′-(1-amino-3-methylbutyl)-4,6′-biquinolin-2-yl)acetamide]
10 | 101 to 2500 |  | CC(C)CC(N)c1ccc2cc(-c3cc(N)nc4ccccc34)ccc2n1 (single isomer, unassigned) [Example 48, 2′-(1-amino-3-methylbutyl)-4,6′-biquinolin-2-amine]
11 | 101 to 2500 |  | CC(C)CC(N)c1ccc2cc(-c3cc(N)nc4ccccc34)ccc2n1 (single isomer, unassigned) [Example 49, 2′-(1-amino-3-methylbutyl)-4,6′-biquinolin-2-amine]
12 |  | 4.1 | COc1cc2nc(C(N)CC(C)C)cc(C#N)c2cc1-c1cnco1 (single isomer, unassigned; (+)) [Example 13, (+)-2-(1-Amino-3-methylbutyl)-7-methoxy-6-(oxazol-5-yl)quinoline-4-carbonitrile]
13 | 11 to 100 |  | CC(C)CC(N)c1ccc2cc(-c3ccncc3)ccc2n1 (single isomer, unassigned; (+)) [Example 21, (+)-3-methyl-1-(6-(pyridin-4-yl)quinolin-2-yl)butan-1-amine]
14 | 101 to 2500 |  | COc1cnccc1-c1ccc2nc(C(N)CC(C)C)ccc2c1 (single isomer, unassigned; (+)) [Example 22, (+)-1-(6-(3-methoxypyridin-4-yl)quinolin-2-yl)-3-methylbutan-1-amine]
15 | 11 to 100 |  | COc1cc2nc(C(N)CC(C)C)cc(C#N)c2cc1-c1cnco1 (single isomer, unassigned; (-)) [Example 12, (−)-2-(1-Amino-3-methylbutyl)-7-methoxy-6-(oxazol-5-yl)quinoline-4-carbonitrile]
16 | 11 to 100 |  | CC(C)CC(N)c1ccc2cc(-c3ccncc3)ccc2n1 (single isomer, unassigned; (-)) [Example 20, (−)-3-methyl-1-(6-(pyridin-4-yl)quinolin-2-yl)butan-1-amine]
17 | 101 to 2500 |  | COc1cnccc1-c1ccc2nc(C(N)CC(C)C)ccc2c1 (single isomer, unassigned; (-)) [Example 23, (−)-1-(6-(3-methoxypyridin-4-yl)quinolin-2-yl)-3-methylbutan-1-amine]
18 | 11 to 100 |  | CC(C)CCc1cc(O)c2cc(-c3ccncc3)ccc2n1 [Example 1, 2-Isopentyl-6-(pyridin-4-yl)quinolin-4-ol]
19 | 101 to 2500 |  | COc1cc(CCC(C)C)nc2ccc(-c3ccncc3)cc12 [Example 2, 2-Isopentyl-4-methoxy-6-(pyridin-4-yl)quinoline]
20 | 11 to 100 |  | CC(C)CCc1cc(Br)c2cc(-c3ccncc3)ccc2n1 [Example 3, 4-Bromo-2-isopentyl-6-(pyridin-4-yl)quinoline]
21 | 101 to 2500 |  | CC(C)CCc1ccc2cc(-c3ccncc3)ccc2n1 [Example 4, 2-Isopentyl-6-(pyridin-4-yl)quinoline]
22 | 11 to 100 |  | CC(C)CCc1cc(N(C)C)c2cc(-c3ccncc3)ccc2n1 [Example 5, 2-Isopentyl-N,N-dimethyl-6-(pyridin-4-yl)quinolin-4-amine]
23 | 11 to 100 |  | CC(C)CCc1cc(C#N)c2cc(-c3ccncc3)ccc2n1 [Example 6, 2-Isopentyl-6-(pyridin-4-yl)quinoline-4-carbonitrile]

Row | IC50 [1] [nM] | IC50 [2] [nM] | Structure (SMILES)
24 | 11 to 100 |  | COc1cc2nc(CCC(C)C)cc(O)c2cc1-c1cnco1 [Example 9, 2-Isopentyl-7-methoxy-6-(oxazol-5-yl)quinolin-4-ol]
25 | 11 to 100 |  | COc1cc2nc(CCC(C)C)cc(Br)c2cc1-c1cnco1 [Example 10, 5-(4-Bromo-2-isopentyl-7-methoxyquinolin-6-yl)oxazole]
26 | 11 to 100 |  | COc1cc2nc(CCC(C)C)cc(C#N)c2cc1-c1cnco1 [Example 11, 2-Isopentyl-7-methoxy-6-(oxazol-5-yl)quinoline-4-carbonitrile]
27 | 101 to 2500 |  | Cc1nc2ccc(-c3ccncc3)cc2c(O)c1CC(C)C [Example 14, 3-Isobutyl-2-methyl-6-(pyridin-4-yl)quinolin-4-ol]
28 | 101 to 2500 |  | CC(C)Cc1cnc2ccc(-c3ccncc3)cc2c1O [Example 15, 3-Isobutyl-6-(pyridin-4-yl)quinolin-4-ol]
29 | 11 to 100 |  | CC(C)CCc1nc2ccc(-c3ccncc3)cc2c(O)c1Br [Example 16, 3-Bromo-2-isopentyl-6-(pyridin-4-yl)quinolin-4-ol]
30 | 101 to 2500 |  | CC(C)CCc1nc2ccc(-c3ccncc3)cc2cc1C(N)=O [Example 17, 2-Isopentyl-6-(pyridin-4-yl)quinoline-3-carboxamide]
31 | 101 to 2500 |  | CC(C)CCc1nc2ccc(-c3ccncc3)cc2cc1C#N [Example 18, 2-Isopentyl-6-(pyridin-4-yl)quinoline-3-carbonitrile]
32 | 101 to 2500 |  | CC(C)CC(=O)c1ccc2cc(-c3ccncc3)ccc2n1 [Example 19, 3-methyl-1-(6-(pyridin-4-yl)quinolin-2-yl)butan-1-one]
33 | 101 to 2500 |  | COc1cc(-c2ccc3nc(C(N)CC(C)C)ccc3c2)ccn1 (stereo not drawn) [Example 24]
34 | 1 to 10 |  | CC(C)CC(N)c1ccc2cc(-c3ccnc4[nH]ccc34)ccc2n1 (stereo not drawn) [Example 25, 1-(6-(1H-pyrrolo[2,3-b]pyridin-4-yl)quinolin-2-yl)-3-methylbutan-1-amine]
35 | 11 to 100 |  | CC(C)CC(N)c1ccc2cc(-c3ccnc4ccccc34)ccc2n1 (stereo not drawn) [Example 26, 1-([4,6′-biquinolin]-2′-yl)-3-methylbutan-1-amine]
36 | 101 to 2500 |  | CC(C)CC(N)c1ccc2cc(-c3ccc4cnccc4c3)ccc2n1 (stereo not drawn) [Example 27, 1-(6-(isoquinolin-6-yl)quinolin-2-yl)-3-methylbutan-1-amine]
37 | 11 to 100 |  | CC(C)CC(N)c1ccc2cc(-c3ccnc(N(C)C)n3)ccc2n1 (stereo not drawn) [Example 28, 4-(2-(1-amino-3-methylbutyl)quinolin-6-yl)-N,N-dimethylpyrimidin-2-amine]
38 | 1 to 10 |  | CC(C)CC(N)c1ccc2cc(-c3ccnc(N)c3)ccc2n1 (stereo not drawn) [Example 29, 4-(2-(1-amino-3-methylbutyl)quinolin-6-yl)pyridin-2-amine]
39 | 101 to 2500 |  | CC(=O)Nc1cc(-c2ccc3nc(C(=O)CC(C)C)ccc3c2)ccn1 [Example 30, N-(4-(2-(3-methylbutanoyl)quinolin-6-yl)pyridin-2-yl)acetamide]
40 | 11 to 100 |  | CC(C)CCc1cc(=S)c2cc(-c3ccncc3)ccc2[nH]1 [Example 31, 2-isopentyl-6-(pyridin-4-yl)quinoline-4(1H)-thione]
41 | 101 to 2500 |  | CC(C)CC(OCC(F)(F)F)c1ccc2cc(-c3ccncc3)ccc2n1 (stereo not drawn) [Example 32, 2-(3-methyl-1-(2,2,2-trifluoroethoxy)butyl)-6-(pyridin-4-yl)quinoline]
42 | 11 to 100 |  | CC(C)CC(N)c1ccc2cc(-c3ccnc(NC(=O)c4cccc(F)c4)c3)ccc2n1 (stereo not drawn) [Example 35, N-(4-(2-(1-amino-3-methylbutyl)quinolin-6-yl)pyridin-2-yl)-3-fluorobenzamide]
43 | 1 to 10 |  | CC(=O)Nc1cc(-c2ccc3nc(C(N)C4CCCCC4)ccc3c2)ccn1 (stereo not drawn) [Example 36]
44 | 1 to 10 |  | CC(C)CC(N)c1cc(-c2nnn[nH]2)c2cc(-c3ccncc3)ccc2n1 (stereo not drawn) [Example 37, 3-methyl-1-(6-(pyridin-4-yl)-4-(1H-tetrazol-5-yl)quinolin-2-yl)butan-1-amine]
45 | 11 to 100 |  | CC(C)CC(N)c1ccc2cc(-c3ccnc(NC4CC4)c3)ccc2n1 (stereo not drawn) [Example 38, 4-(2-(1-amino-3-methylbutyl)quinolin-6-yl)-N-cyclopropylpyridin-2-amine]
